Our source for the IC50 values is patent publication US20260356840A1, “[1,2,4]TRIAZOLO[1,5-A]PYRIMIDINONE WRN INHIBITORS” (Nimbus Wadjet, Inc., priority 2023, published 2026).

SMILES strings stand for the structures.

For the assay, the target named is T1, human Werner helicase (Uniprot Q14191, amino acids 517-1235 with L1074F point mutation), WRN-BV08 (Homo sapiens, UniProt Q14191, L1074F).
T1 construct: Uniprot Q14191, amino acids 517-1235 with L1074F point mutation; TEV cleavable 8xHis tag (C, cleaved yes); made in house; host or cells: Sf9 insect cells (baculovirus, pFastBac)
T1 sequence (Q14191 517-1235 L1074F): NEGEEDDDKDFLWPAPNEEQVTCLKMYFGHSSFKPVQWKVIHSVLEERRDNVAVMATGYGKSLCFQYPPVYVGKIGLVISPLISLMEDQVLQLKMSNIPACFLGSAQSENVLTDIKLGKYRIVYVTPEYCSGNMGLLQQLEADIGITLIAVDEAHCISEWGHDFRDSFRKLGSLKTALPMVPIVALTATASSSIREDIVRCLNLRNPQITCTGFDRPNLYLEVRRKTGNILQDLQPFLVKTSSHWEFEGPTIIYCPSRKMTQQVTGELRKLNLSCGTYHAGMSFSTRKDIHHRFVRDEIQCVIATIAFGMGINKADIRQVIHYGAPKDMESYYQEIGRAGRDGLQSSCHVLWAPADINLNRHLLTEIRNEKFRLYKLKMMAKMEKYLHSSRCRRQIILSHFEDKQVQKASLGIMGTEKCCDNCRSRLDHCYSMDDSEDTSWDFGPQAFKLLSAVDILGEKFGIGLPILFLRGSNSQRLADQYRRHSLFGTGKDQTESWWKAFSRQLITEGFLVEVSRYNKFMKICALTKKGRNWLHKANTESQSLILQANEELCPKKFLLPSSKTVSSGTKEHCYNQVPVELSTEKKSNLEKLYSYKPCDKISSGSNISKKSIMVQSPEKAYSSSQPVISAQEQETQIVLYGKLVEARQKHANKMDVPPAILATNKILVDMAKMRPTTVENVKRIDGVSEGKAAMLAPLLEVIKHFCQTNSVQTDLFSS
Briefly: WRN (BV08) ADP-Glo Assay. The format is biochemical. As for the experimental part: DNA duplex was synthesized at BGI (Shenzhen, China) and was composed of strand 1 with the sequence 5′-[…]-3′ (SEQ ID NO.: 1) and strand 2 with the sequence 5′-[…]-3′ (SEQ ID NO.: 2). DNA strands were annealed by heating to 95 °C for 5 minutes followed by slow cooling to room temperature. […] DMSO (0.1 μl) was added to columns 12, rows A-H and column 24, rows I-P for the maximum signal control.
Where RLU=relative luminescence units, sample=signal in sample well, and MIN and MAX are the respective minimum and maximum signal controls. • Four-parameter IC50 fit equation:
Y=Bottom+(Top−Bottom)/(1+(IC50/X)^Hill Slope)
Where top and bottom are normally allowed to float but may be fixed at 100 or 0 respectively in a 3-parameter fit. Y is the % inhibition and X is the compound concentration.
Molecular Biology and virus production. […] The baculovirus from the expression plasmid WRN-BV08 was generated from transfection and amplification following the manufacturer's instructions.
Sf9 cells grown in SF900II media were infected with 1:200 WRN-BV08 P2 virus and incubated for protein expression for 72 h at 27 °C. The WRN protein was purified using the following protocol. The cell pellets were thawed and resuspended in buffer A (50 mM Tris, pH 7.5, 500 mM NaCl, 1 mM TCEP, 10% Glycerol) supplemented with 0.5% CHAPS, 1 mM [COMPOUND LEFT OUT], 1 μg/ml Leupeptin, 1 μg/ml Pepstatin, and the Pierce Universal Nuclease and cocktail tablet. Cleared lysates were loaded onto a Ni Sepharose™ excel column and washed with buffer A and bound protein was eluted with buffer A supplemented with 300 mM imidazole. The eluted protein was dialyzed against buffer A and digested by His-tagged TEV (1:5 ratio) overnight at 4 °C. […] Untagged WRN protein was eluted from the column with buffer A supplemented with 20 mM imidazole, dialyzed overnight into buffer B (50 mM Tris, pH 7.5, 1 mM TCEP, 10% Glycerol) supplemented with 150 mM NaCl and loaded onto a Heparin column. Proteins were eluted with a step gradient of buffer B supplemented with 150 mM, 200 mM, 300 mM and 500 mM NaCl.
As usually defined, the IC50 is the point on the concentration scale where inhibition reaches its midpoint. `CCc1c(N2CCN(C(=O)c3c(C)nn(C)c3OC)CC2)c(=O)n2nc(-c3ccnc(OC)c3)nc2n1CC(=O)Nc1ccc(C(F)(F)F)cc1Cl` [Compound I-62, N-[2-chloro-4-(trifluoromethyl)phenyl]-2-{5-ethyl-6-[4-(5-methoxy-1,3-dimethyl-1H-pyrazole-4-carbonyl)piperazin-1-yl]-2-(2-methoxypyridin-4-yl)-7-oxo-4H,7H-[1,2,4]triazolo[1,5-a]pyrimidin-4-yl}acetamide]: the IC50 was in the range of 0.005 to 0.05 µM.

With `CCc1c(N2CCN(C(=O)c3c(C)nn(C)c3C)CC2)c(=O)n2nc(-c3ccnc(OC)c3)nc2n1CC(=O)Nc1ccc(C(F)(F)F)cc1Cl` [Compound I-50, N-[2-chloro-4-(trifluoromethyl)phenyl]-2-[5-ethyl-2-(2-methoxypyridin-4-yl)-7-oxo-6-[4-(1,3,5-trimethyl-1H-pyrazole-4-carbonyl)piperazin-1-yl]-4H,7H-[1,2,4]triazolo[1,5-a]pyrimidin-4-yl]acetamide], the IC50 lay in the range of 0.005 to 0.05 µM.

In the case of `CCc1c(N2CCN(C(=O)c3ncnc(C)c3O)CC2)c(=O)n2nc(-c3cnc(OC)c(C)c3)nc2n1CC(=O)Nc1ccc(C(F)(F)F)cc1Cl` [Compound I-42, N-[2-chloro-4-(trifluoromethyl)phenyl]-2-{5-ethyl-6-[4-(5-hydroxy-6-methylpyrimidine-4-carbonyl)piperazin-1-yl]-2-(6-methoxy-5-methylpyridin-3-yl)-7-oxo-4H,7H-[1,2,4]triazolo[1,5-a]pyrimidin-4-yl}acetamide], the IC50 lay within 0.005 to 0.05 µM.

Regarding `CCc1c(N2CCN(C(=O)c3cnn(C)c3)CC2)c(=O)n2nc(-c3cc(OC)ncc3F)nc2n1CC(=O)Nc1ccc(C(F)(F)F)cc1Cl` [Compound I-72, N-[2-chloro-4-(trifluoromethyl)phenyl]-2-[5-ethyl-2-(5-fluoro-2-methoxypyridin-4-yl)-6-[4-(1-methyl-1H-pyrazole-4-carbonyl)piperazin-1-yl]-7-oxo-4H,7H-[1,2,4]triazolo[1,5-a]pyrimidin-4-yl]acetamide], the IC50 was in the range of 0.005 to 0.05 µM.

As for `CCc1c(N2CC3CN(C(=O)c4ncnc(C)c4O)CC3C2)c(=O)n2nc(C3=CCOCC3)nc2n1CC(=O)Nc1ccc(C(F)(F)F)cc1Cl` (stereo not drawn) [Compound I-8, N-[2-chloro-4-(trifluoromethyl)phenyl]-2-[2-(3,6-dihydro-2H-pyran-4-yl)-5-ethyl-6-[5-(5-hydroxy-6-methylpyrimidine-4-carbonyl)-octahydropyrrolo[3,4-c]pyrrol-2-yl]-7-oxo-4H,7H-[1,2,4]triazolo[1,5-a]pyrimidin-4-yl]acetamide], the IC50 lay in the range of 0.005 to 0.05 µM.

`CCc1c(N2CCN(C(=O)c3cnn(C)c3)CC2)c(=O)n2nc(-c3ccnc(OC)n3)nc2n1CC(=O)Nc1ccc(C(F)(F)F)cc1Cl` [Compound I-64, N-[2-chloro-4-(trifluoromethyl)phenyl]-2-[5-ethyl-2-(2-methoxypyrimidin-4-yl)-6-[4-(1-methyl-1H-pyrazole-4-carbonyl)piperazin-1-yl]-7-oxo-4H,7H-[1,2,4]triazolo[1,5-a]pyrimidin-4-yl]acetamide] showed an IC50 of 0.005 to 0.05 µM.

With `CCc1c(N2CCN(C(C)=O)CC2)c(=O)n2nc(-c3ccnc(OC)c3)nc2n1CC(=O)Nc1ccc(C(F)(F)F)cc1Cl` [Compound I-46, 2-[6-(4-acetylpiperazin-1-yl)-5-ethyl-2-(2-methoxypyridin-4-yl)-7-oxo-4H,7H-[1,2,4]triazolo[1,5-a]pyrimidin-4-yl]-N-[2-chloro-4-(trifluoromethyl)phenyl]acetamide], the half-inhibitory concentration (IC50) fell in the range of 0.005 to 0.05 µM.

`CCc1c(N2CCN(C(=O)c3ccn(C)n3)CC2)c(=O)n2nc(C3=CCOCC3)nc2n1CC(=O)Nc1ccc(C(F)(F)F)cc1Cl` [Compound I-30, N-[2-chloro-4-(trifluoromethyl)phenyl]-2-[2-(3,6-dihydro-2H-pyran-4-yl)-5-ethyl-6-[4-(1-methyl-1H-pyrazole-3-carbonyl)piperazin-1-yl]-7-oxo-4H,7H-[1,2,4]triazolo[1,5-a]pyrimidin-4-yl]acetamide] had an IC50 of 0.005 to 0.05 µM.

As to `CCc1c(N2CCN(C(=O)c3ncnc(C)c3O)CC2)c(=O)n2nc(-c3ccnc(OC)c3)nc2n1CC(=O)Nc1ccc(C(F)(F)F)cc1Cl` [Compound I-21, N-[2-chloro-4-(trifluoromethyl)phenyl]-2-{5-ethyl-6-[4-(5-hydroxy-6-methylpyrimidine-4-carbonyl)piperazin-1-yl]-2-(2-methoxypyridin-4-yl)-7-oxo-4H,7H-[1,2,4]triazolo[1,5-a]pyrimidin-4-yl}acetamide], the IC50 was 0.005 to 0.05 µM.

In turn, `CCc1c(N2CCN(C(=O)c3cnn(C)c3)CC2)c(=O)n2nc(-c3ccnc(OC)c3)nc2n1CC(=O)Nc1ccc(S(F)(F)(F)(F)F)cc1Cl` [Compound I-82, N-[2-chloro-4-(pentafluoro-lambda6-sulfanyl)phenyl]-2-[5-ethyl-2-(2-methoxypyridin-4-yl)-6-[4-(1-methyl-1H-pyrazole-4-carbonyl)piperazin-1-yl]-7-oxo-4H,7H-[1,2,4]triazolo[1,5-a]pyrimidin-4-yl]acetamide] registered an IC50 of 0.005 to 0.05 µM.

`CCc1c(N2CCN(C(=O)c3cn(C)[nH]c3=O)CC2)c(=O)n2nc(C3=CCOCC3)nc2n1CC(=O)Nc1ccc(C(F)(F)F)cc1Cl` [Compound I-11, N-[2-chloro-4-(trifluoromethyl)phenyl]-2-[2-(3,6-dihydro-2H-pyran-4-yl)-5-ethyl-6-[4-(3-hydroxy-1-methyl-1H-pyrazole-4-carbonyl)piperazin-1-yl]-7-oxo-4H,7H-[1,2,4]triazolo[1,5-a]pyrimidin-4-yl]acetamide]: the IC50 is under 0.005 µM.

`CCc1c(N2CCN(C(=O)c3cccc4cn[nH]c34)CC2)c(=O)n2nc(C3=CCOCC3)nc2n1CC(=O)Nc1ccc(C(F)(F)F)cc1Cl` [Compound I-14, N-[2-chloro-4-(trifluoromethyl)phenyl]-2-[2-(3,6-dihydro-2H-pyran-4-yl)-5-ethyl-6-[4-(1H-indazole-7-carbonyl)piperazin-1-yl]-7-oxo-4H,7H-[1,2,4]triazolo[1,5-a]pyrimidin-4-yl]acetamide] showed an IC50 of under 0.005 µM.

Consider `CCc1c(N2CCN(C(=O)c3ncc(C)s3)CC2)c(=O)n2nc(-c3ccnc(OC)c3)nc2n1CC(=O)Nc1ccc(C(F)(F)F)cc1Cl` [Compound I-58, N-[2-chloro-4-(trifluoromethyl)phenyl]-2-[5-ethyl-2-(2-methoxypyridin-4-yl)-6-[4-(5-methyl-1,3-thiazole-2-carbonyl)piperazin-1-yl]-7-oxo-4H,7H-[1,2,4]triazolo[1,5-a]pyrimidin-4-yl]acetamide], for which the IC50 was 0.05 to 0.1 µM.

Turning to `CCc1c(N2CCN(C(=O)c3cnn(C)c3)CC2)c(=O)n2nc(-c3cnn(CC(C)(C)O)c3)nc2n1CC(=O)Nc1ccc(C(F)(F)F)cc1Cl` [Compound I-56, N-[2-chloro-4-(trifluoromethyl)phenyl]-2-{5-ethyl-2-[1-(2-hydroxy-2-methylpropyl)-1H-pyrazol-4-yl]-6-[4-(1-methyl-1H-pyrazole-4-carbonyl)piperazin-1-yl]-7-oxo-4H,7H-[1,2,4]triazolo[1,5-a]pyrimidin-4-yl}acetamide], the IC50 is 0.005 to 0.05 µM.

Consider `CCc1c(N2CCN(C(=O)c3ncnc(C)c3O)CC2)c(=O)n2nc(-c3ccn(C4CC4)n3)nc2n1CC(=O)Nc1ccc(C(F)(F)F)cc1Cl` [Compound I-33, N-[2-chloro-4-(trifluoromethyl)phenyl]-2-[2-(1-cyclopropyl-1H-pyrazol-3-yl)-5-ethyl-6-[4-(5-hydroxy-6-methylpyrimidine-4-carbonyl)piperazin-1-yl]-7-oxo-4H,7H-[1,2,4]triazolo[1,5-a]pyrimidin-4-yl]acetamide], for which the 50% inhibitory concentration (IC50) was in the range of 0.005 to 0.05 µM.
